Reference: patent US20160039936A1, “FIBROBLAST GROWTH FACTOR RECEPTOR INHIBITION FOR THE TREATMENT OF DISEASE” (UNIVERSITY OF MIAMI, priority 2011, published 2016)
Entries after “also recorded” stand apart in the source; their conditions may differ.

Key:
[1] = tested on: isolated neonatal rat ventricular cardiac myocytes (NRVM); experiment: Surface area (hypertrophy) of isolated NRVM, immunocytochemistry and morphometry (Examples 1-2); type: cell-based; conditions: for FGF2-induced increase in cell surface area (hypertrophy) in presence of inhibitor: 48 h FGF2, inhibitor pre-treated 60 min at Table 2 concentration; for FGF23-induced increase in cell surface area (hypertrophy) in presence of inhibitor: 48 h FGF23, inhibitor pre-treated 60 min at Table 2 concentration; for cell surface area: 48 h incubation with the FGF alone
Protocol: NRVM were isolated using a standard isolation system (Worthington Biochemical Corporation) (Toraason et al., Toxicology, 56(1):107-117, 1989). Hearts from 1-2 day old Sprague Dawley rats (Charles River) were harvested, minced in calcium- and magnesium-free Hank's Balanced Salt Solution (HBSS), and the tissue digested with 50 μg/ml trypsin at 4° C. for 20-24 hours. Soybean trypsin inhibitor in HBSS was added and the tissue was further digested with collagenase (in Leibovitz L-15 medium) under slow rotation (15 rpm) at 37° C. for 45 minutes. Cells were released by gently triturating the suspension 20 times with a standard 10 ml plastic serological pipette and filtering it twice through a cell strainer (70 μm, BD Falcon). Cells were incubated at room temperature for 20 minutes and spun at 100 g for 5 minutes. The cell pellet was resuspended in plating medium [Dulbecco's Modified Eagle Medium (DMEM; Cellgro) with 17% Media 199 (Invitrogen), 15% fetal bovine serum (FBS; Invitrogen) and 1% penicillin/streptomycin solution (P/S; Invitrogen)]. Cells were counted using a hemocytometer.
Cells were plated on glass and plastic surfaces which were coated with laminin (Invitrogen; 10μg/ml in PBS) at room temperature for 1 hour prior to plating. For immunofluorescence analysis, 1×10^6 cells were seeded per well on glass coverslips in 6-well plates. For protein and RNA isolation, 2×10^6 cells were seeded in 6 cm-culture dishes. Cells were left undisturbed in plating medium at 37° C. for 72 hours and then cultured in maintenance medium (DMEM with 20% Media 199, 1% insulin-transferrin-sodium selenite solution (ITS; Sigma-Aldrich) and 1% P/S) in the presence of 100 μM 5-bromo-2′-deoxyuridine (BrdU; Sigam-Aldrich) to eliminate proliferating non-myocytes resulting in a relatively pure population of isolated cardiac myocytes (Bishopric et al., 1987). After 4 days, isolated cardiac myocytes were cultured in BrdU-containing maintenance medium in the presence of recombinant murine FGF23 (26.1 kDa, 251 amino acids; R&D Systems) or FGF2 (16.2 kDa, 144 amino acids; R&D Systems) for 48 hours.
We analyzed isolated NRVM on laminin-coated glass coverslips by immunocytochemsitry according to our established protocols (Faul et al., Cell Biol., 169(3):415-424, 2005; Faul et al., Cell Biol., 27(23):8215-8227, 2007). The mouse monoclonal antibody against sarcomeric α-actinin (EA-53; Sigma-Aldrich) was used at 1:1000 and Cy3-conjugated goat-anti mouse (Jackson Immuno Research) as secondary antibody at 1:750. To visualize nuclei, fixed cells were incubated with 4′,6-diamidino-2-phenylindole (DAPI; 400 ng/ml in PBS) for 5 minutes. Immunofluorescence images were taken on a Leica TCS-SP5 confocal microscope with a 63× oil objective with a 1.6× zoom. Leica AF6000 fluorescence software was used to measure the cell surface area based on α-actinin-positive staining.
To assess the signaling pathways involved in FGF23- and FGF2-mediated hypertrophy, we analyzed the morphometry of plated cells that were pre-treated with specific inhibitors for 60 minutes prior to the addition of the FGFs at varying concentrations.

C57BL/6 mice = experiment: Intravenous injection of FGFs (with or without Fc-FGFR decoy receptors) in mice; type: in vivo, mouse; conditions: 40 μg/kg FGF, ten times over five days
Protocol: Twelve-week old adult C57BL/6 mice underwent tail vein injections using standard protocols as previously described for the systemic delivery of plasmid DNA (Faul et al., 2008). Briefly, mice were placed in a restrainer and 40 μg/kg of FGF23 dissolved in 200 μl of PBS were injected into the tail vein of 5 mice twice daily with eight hours in between injections for 5 consecutive days. Four mice underwent the same injection schedule using 200 μl of PBS alone as negative control. On the morning of the 6th day, 16 hours after the final tail vein injections, animals were sacrificed and the hearts were isolated and prepared using the same protocol as described above.
Short-axis cardiac sections were used to quantify myocardial thickness by measuring the distance from the inner to the outer myocardial zone at the mid-chamber zone. […] Since klothro-ablated kl/kl mice display severe growth retardation with small hearts (Kuro-o et al., Nature, 390(6655):45-51, 1997), we also measured relative wall thickness calculated as two times the anterior wall thickness divided by left ventricular internal diameter. Total RNA was isolated from flash frozen hearts using TRIzol (Invitrogen) and RT-PCR analyses were performed as described above.
We measured cross-sectional surface area of cardiac myocytes in paraffin-embedded short-axis sections of the heart. Briefly, 7 μm thick sections were deparaffinized according to our established protocols. To specifically label cardiac myocytes, we used mouse monoclonal MF20 antibody against sarcomeric myosin at 1:200 and Cy5-conjugated donkey-anti mouse (Invitrogen) as secondary antibody at 1:400. To visualize nuclei, fixed tissue was incubated with 4′,6-diamidino-2-phenylindole (DAPI; 400 ng/ml in PBS) for 5 minutes. To visualize cellular borders, fixed tissue was incubated with wheat germ agglutinin (WGA) conjugated to Alexa Fluor 555 (Invitrogen) at 1 mg/ml in PBS containing 10 mM sodium azide. Immunofluorescence images were taken on a Leica TCS-SP5 confocal microscope with a 63× oil objective. Leica AF6000 fluorescence software was used to quantify cross-sectional cell surface area of 25 cells per field at four fields along the mid-chamber free wall based on WGA-positive staining.
Next, we wanted to determine the effectiveness of this FGFR trapping system on FGF-induced LVH in mice. To our knowledge, Fc decoy receptors have not yet been used to study FGFR function in vivo in any biological context, but served as valuable tools to analyze the functions of other receptor tyrosine kinases, like receptors for vascular endothelial growth factor (VEGFR) and their role in tumor growth and metastasis. We used similar Fc-FGFR concentrations as described for Fc-VEGFR in animal models of cancer (Lin J et al., Cancer Res. 2005; 65(15):6901-9).

[2] = tested on: neonatal mouse ventricular myocytes (NMVM); experiment: Hypertrophic growth and β-MHC of isolated NMVM (wild-type or FGFR4−/−); type: cell-based; conditions: 48 h
Protocol: NMVM were isolated enzymatically (Kreusser et al., 2014). Briefly, hearts from 1-3 day-old mice were harvested, minced in PBS/glucose and further digested with collagenase type 2 (0.2% w/v) and DNase (0.05% w/v) on a rotary shaker at 37° C. for 11 minutes. Cells were then released from the tissue by triturating the suspension twice with a standard 10 ml plastic serological pipette, transferred to DF10 medium (Dulbecco's Modified Eagle Medium/Ham's Nutrient Mixture F12 adjusted to 17 mM NaHCO2 containing 2 mM L-glutamine, 1% P/S and 10% FBS), and stored on ice. The remaining tissue was further incubated in PBS/glucose/collagenase/DNase solution on a rotary shaker at 37° C. for 11 minutes. The trituration and incubation steps were repeated 5-7 times until the tissue was completely dissolved. Cells were pelleted at 300 g for 5 minutes, resuspended in DF20 media (Dulbecco's Modified Eagle Medium/Ham's Nutrient Mixture F12 adjusted to 17 mM NaHCO2 containing 2 mM L-glutamine, 1% P/S and 20% FBS), and preplated for 1 hour to eliminate fibroblasts. Remaining cells were counted using a hemocytometer and plated on glass and plastic surfaces, which were coated with laminin (Sigma-Aldrich; 10 μg/ml in PBS) at room temperature for 1 hour prior to plating. For immunofluorescence analysis, 3×10^5 cells were seeded per well on glass coverslips in 24-well plates. For Western blot analyses of total protein extracts, 5×10^6 cells were seeded in 10 cm-culture dishes. Cells were left undisturbed in DF20 medium at 37° C. for 72 hours, starved overnight with DF medium (Dulbecco's Modified Eagle Medium/Ham's Nutrient Mixture F12 adjusted to 17 mM NaHCO2 containing 2 mM L-glutamine, 1% P/S), and treated in DF medium with recombinant FGF23, FGF2 (both at 100 ng/ml) or AngII (1 μM, Sigma-Aldrich) for 48 hours.
HEK293 cells, NRVM or NMVM were treated with growth factors for 30 minutes to analyze activation of signal transduction mediators, or for 48 hours to analyze expression levels of hypertrophic marker proteins. Cells were scraped from 6-well plates using 500 μl CHAPS extraction buffer (20 mM Tris-HCl pH7.5, 500 mM NaCl, 0.5% CHAPS, protease inhibitor cocktail (Roche), protein phosphatase inhibitors [Sigma-Aldrich]) and incubated on ice for 30 minutes. The cell lysate was centrifuged at 14,000 rpm and 4° C. for 30 minutes, and the supernatant boiled in sample buffer and analyzed by SDS-PAGE and immunoblotting. For protein extraction from mouse hearts, tissue was isolated, minced and homogenized in RIPA extraction buffer (50 mM Tris-HCl pH 7.5, 200 mM NaCl, 1% Triton X-100, 0.25% DOC, 1 mM EDTA, 1 mM EGTA, protease and phosphatase inhibitors) at 1:10 (w:v), and protein lysates were prepared as described above.
Cultured cells were fixed in 2% PFA (in 5 mg/ml sucrose) for 5 minutes and permeabilized in 1% Triton X-100 (in PBS) for 10 minutes. We analyzed hypertrophic growth of isolated NRVM and NMVM on laminin-coated glass coverslips after 48 hours of treatment with growth factors. For FGFR4 expression and localization analyses, untreated NMVM from wild-type and FGFR4^−/− mice were immunolabeled. The mouse monoclonal antibody against sarcomeric α-actinin (EA-53; Sigma-Aldrich) was used at 1:1,000, and rabbit polyclonal anti-FGFR4 (C-16; Santa Cruz) at 1:50. Cy3-conjugated goat-anti mouse and Alexa488-conjugated goat-anti rabbit (Jackson Immuno Research) were used as secondary antibodies at 1:300. To visualize nuclei, fixed cells were incubated with 4′,6-diamidino-2-phenylindole (DAPI; 400 ng/ml in PBS) for 10 minutes. Immunofluorescence images were taken on a Leica TCS-SP5 confocal microscope with a 63× oil objective.
Myocyte cross-sectional area was measured based on α-actinin-positive staining using Leica AF6000 fluorescence software. […]

Molecule	FGF2-induced increase in cell surface area (hypertrophy) in presence of inhibitor [1]	FGF23-induced increase in cell surface area (hypertrophy) in presence of inhibitor [1]	cell surface area [1]	other results
O=c1[nH]c2ccccc2n1C1CCN(Cc2ccc(-c3nc4cc5nc[nH]c5cc4nc3-c3ccccc3)cc2)CC1 [A6730]	partially attenuated	did not significantly alter	–	–
FGF4	–	–	no change in size; also recorded: did not induce a hypertrophic response	–
COc1cccc(-c2cc(=O)c3ccccc3o2)c1N [PD98059]	completely prevented	only partially diminished	–	–
N#CC(=C(/N)Sc1ccccc1N)/C(C#N)=C(\N)Sc1ccccc1N [U0126]	completely prevented	only partially diminished	–	–
COc1ccc2c(c1)CC[C@@H]1[C@@H]2CC[C@]2(C)[C@@H](NCCCCCCN3C(=O)C=CC3=O)CC[C@@H]12 [U73122]	had no effect	attenuated	–	–
FGF19: endocrine fibroblast growth factor 19	–	–	significant dose-dependent increase	induction of LVH (C57BL/6 mice): significant induction of LVH
angiotensin (Ang) II [AngII, pro-hypertrophic angiotensin II (Sigma-Aldrich), reference compound]	–	–	–	expression of β-MHC protein in FGFR4−/− NMVM ([2]; immunoblot): induced this effect; expression of β-MHC protein in wild-type NMVM ([2]; immunoblot): increased expression; cross-sectional area (size) of NMVM from FGFR4−/− mice ([2]; FGF 100 ng/ml, AngII 1 μM): increase the size; cross-sectional area of wild-type NMVM ([2]; FGF 100 ng/ml, AngII 1 μM): significant increases
FGF21: endocrine fibroblast growth factor 21 (protein, UniProt Q9NSA1 29-209, looked up) Fibroblast growth factor 21: HPIPDSSPLLQFGGQVRQRYLYTDDAQQTEAHLEIREDGTVGGAADQSPESLLQLKALKPGVIQILGVKTSRFLCQRPDGALYGSLHFDPEACSFRELLLEDGYNVYQSEAHGLPLHLPGNKSPHRDPAPRGPARFLPLPGLPPALPEPPGILAPQPPDVGSSDPLSMVGPSQGRSPSYAS	–	–	significant dose-dependent increase	induction of LVH (C57BL/6 mice): significant induction of LVH
